ChEMBL document CHEMBL1201861, “Genomics of Drug Sensitity in Cancer screening data, Wellcome Trust Sanger Institute”

Experiments:
Assay in all cases: cells
Conditions in all cases: Homo sapiens
COLO-684 = assay type: functional, cell-based
Description: SANGER: Inhibition of human COLO-684 cell growth in a cell viability assay.

NOS-1 = assay type: functional, cell-based;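 note: growth inhibition of the human NOS-1 cell line, read out with a cell viability assay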
Description: SANGER: Inhibition of human NOS-1 cell growth in a cell viability assay.

NCI-H1155 = assay type: functional, cell-based;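 note: cell growth inhibition measured by a viability assay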
Description: SANGER: Inhibition of human NCI-H1155 cell growth in a cell viability assay.

NH-12 = assay type: functional, cell-based;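 note: growth inhibition of NH-12 cells, read out with a cell viability assay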
Description: SANGER: Inhibition of human NH-12 cell growth in a cell viability assay.

NCI-H510A = assay type: functional, cell-based;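 note: growth inhibition of NCI-H510A cells, read out with a cell viability assay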
Description: SANGER: Inhibition of human NCI-H510A cell growth in a cell viability assay.

TE-5 = assay type: functional, cell-based;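 note: inhibition of cell growth, read out by a cell viability assay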
Description: SANGER: Inhibition of human TE-5 cell growth in a cell viability assay.

EW-18 = assay type: functional, cell-based;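 note: growth inhibition of EW-18 cells, read out by a cell viability assay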
Description: SANGER: Inhibition of human EW-18 cell growth in a cell viability assay.

KG-1 = assay type: functional, cell-based;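 note: growth inhibition of KG-1 cells, read out by a cell viability assay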
Description: SANGER: Inhibition of human KG-1 cell growth in a cell viability assay.

SCH = assay type: functional, cell-based;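 note: growth inhibition of human SCH cells, read out in a cell viability assay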
Description: SANGER: Inhibition of human SCH cell growth in a cell viability assay.

NB6 = assay type: functional, cell-based
Description: SANGER: Inhibition of human NB6 cell growth in a cell viability assay.

LS-411N = assay type: functional, cell-based
Ramos-2G6-4C10 = assay type: functional, cell-based;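 note: growth inhibition of the cell line, measured by a cell viability read-out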
Description: SANGER: Inhibition of human Ramos-2G6-4C10 cell growth in a cell viability assay.

HCE-4 = assay type: functional, cell-based;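 note: cell viability assay measuring inhibition of growth in the human HCE-4 cell line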
Description: SANGER: Inhibition of human HCE-4 cell growth in a cell viability assay.

8-MG-BA = assay type: functional, cell-based;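 note: growth inhibition of 8-MG-BA cells, read out with a cell viability assay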
Description: SANGER: Inhibition of human 8-MG-BA cell growth in a cell viability assay.

D-263MG = assay type: functional, cell-based
Description: SANGER: Inhibition of human D-263MG cell growth in a cell viability assay.

RPMI-8226 = assay type: functional, cell-based
Description: SANGER: Inhibition of human RPMI-8226 cell growth in a cell viability assay.

NCI-H2126 = assay type: functional, cell-based;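 note: growth inhibition of the cancer cell line, determined with a cell viability readout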
Description: SANGER: Inhibition of human NCI-H2126 cell growth in a cell viability assay.

MZ2-MEL = assay type: functional, cell-based;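 note: growth inhibition of MZ2-MEL cells read out with a cell viability assay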
Description: SANGER: Inhibition of human MZ2-MEL cell growth in a cell viability assay.

KP-N-YS = assay type: functional, cell-based;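 note: cell viability assay measuring inhibition of cell line growth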
Description: SANGER: Inhibition of human KP-N-YS cell growth in a cell viability assay.

BB65-RCC = assay type: functional, cell-based;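 note: growth inhibition of the cell line, measured with a cell viability assay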
Description: SANGER: Inhibition of human BB65-RCC cell growth in a cell viability assay.

SH-4 = assay type: functional, cell-based;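 note: growth inhibition of SH-4 cells, read out with a cell viability assay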
Description: SANGER: Inhibition of human SH-4 cell growth in a cell viability assay.

IST-MEL1 = assay type: functional, cell-based;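 note: growth inhibition of the cell line, read out with a cell viability assay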
Description: SANGER: Inhibition of human IST-MEL1 cell growth in a cell viability assay.

LXF-289 cell line = assay type: functional, cell-based
Description: SANGER: Inhibition of human LXF-289 cell growth in a cell viability assay.

HT = assay type: functional, cell-based
Description: SANGER: Inhibition of human HT cell growth in a cell viability assay.

ES7 = assay type: functional, cell-based;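 note: growth inhibition of cultured human ES7 cells, read out as cell viability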
Description: SANGER: Inhibition of human ES7 cell growth in a cell viability assay.

EKVX = assay type: functional, cell-based;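 note: growth inhibition of human EKVX cells, read out with a cell viability assay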
Description: SANGER: Inhibition of human EKVX cell growth in a cell viability assay.

MOLT-16 = assay type: functional, cell-based;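 note: growth inhibition of human MOLT-16 cells, read out with a cell viability assay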
Description: SANGER: Inhibition of human MOLT-16 cell growth in a cell viability assay.

NKM-1 = assay type: functional, cell-based;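 note: growth inhibition of NKM-1 cells, read out with a cell viability assay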
Description: SANGER: Inhibition of human NKM-1 cell growth in a cell viability assay.

DJM-1 = assay type: functional, cell-based;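 note: growth inhibition of human DJM-1 cells, read out by a cell viability assay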
Description: SANGER: Inhibition of human DJM-1 cell growth in a cell viability assay.

SCC-15 = assay type: functional, cell-based;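 note: growth inhibition of SCC-15 cells, read out with a cell viability assay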
Description: SANGER: Inhibition of human SCC-15 cell growth in a cell viability assay.

SW872 = assay type: functional, cell-based;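 note: growth inhibition of SW872 cells, read out by a viability assay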
Description: SANGER: Inhibition of human SW872 cell growth in a cell viability assay.

IST-SL1 = assay type: functional, cell-based;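 note: growth inhibition of human IST-SL1 cells, read out with a cell viability assay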
Description: SANGER: Inhibition of human IST-SL1 cell growth in a cell viability assay.

697 = assay type: functional, cell-based
Description: SANGER: Inhibition of human 697 cell growth in a cell viability assay.

KS-1 = assay type: functional, cell-based;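 note: growth inhibition of KS-1 cells, read out with a cell viability assay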
Description: SANGER: Inhibition of human KS-1 cell growth in a cell viability assay.

KM-H2 = assay type: functional, cell-based;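 note: growth inhibition of KM-H2 cells, read out by a cell viability assay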
Description: SANGER: Inhibition of human KM-H2 cell growth in a cell viability assay.

PSN1 = assay type: functional, cell-based;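 note: suppression of growth of human PSN1 cells, read out by a cell viability assay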
Description: SANGER: Inhibition of human PSN1 cell growth in a cell viability assay.

KU812 cell line = assay type: functional, cell-based;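 note: growth inhibition of KU812 cells, read out with a cell viability assay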
Description: SANGER: Inhibition of human KU812 cell growth in a cell viability assay.

BV-173 = assay type: functional, cell-based
Description: SANGER: Inhibition of human BV-173 cell growth in a cell viability assay.

SK-NEP-1 = assay type: functional, cell-based;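 note: growth inhibition of human SK-NEP-1 cells, read out by a cell viability assay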
Description: SANGER: Inhibition of human SK-NEP-1 cell growth in a cell viability assay.

SK-MEL-2 = assay type: functional, cell-based;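 note: growth inhibition of human SK-MEL-2 cells measured with a cell viability assay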
Description: SANGER: Inhibition of human SK-MEL-2 cell growth in a cell viability assay.

K562 = assay type: functional, cell-based
Description: SANGER: Inhibition of human K-562 cell growth in a cell viability assay.

NCI-H1838 = assay type: functional, cell-based;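 note: growth inhibition of NCI-H1838 cells, determined with a cell viability readout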
Description: SANGER: Inhibition of human NCI-H1838 cell growth in a cell viability assay.

NCI-H1092 = assay type: functional, cell-based;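 note: cell growth inhibition measured with a cell viability assay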
Description: SANGER: Inhibition of human NCI-H1092 cell growth in a cell viability assay.

GOTO = assay type: functional, cell-based;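 note: growth inhibition of GOTO cells, read out by a cell viability assay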
Description: SANGER: Inhibition of human GOTO cell growth in a cell viability assay.

SW982 = assay type: functional, cell-based;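 note: growth inhibition of SW982 cells, read out with a cell viability assay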
Description: SANGER: Inhibition of human SW982 cell growth in a cell viability assay.

ACN = assay type: functional, cell-based;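 note: growth inhibition of the human ACN cell line, read out via cell viability testing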
Description: SANGER: Inhibition of human ACN cell growth in a cell viability assay.

JVM-3 = assay type: functional, cell-based;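 note: growth inhibition of human JVM-3 cells, read out with a cell viability assay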
Description: SANGER: Inhibition of human JVM-3 cell growth in a cell viability assay.

MS-1 = assay type: functional, cell-based;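 note: growth inhibition of MS-1 cells, read out by cell viability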
Description: SANGER: Inhibition of human MS-1 cell growth in a cell viability assay.

P30-OHK = assay type: functional, cell-based;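 note: growth inhibition of the P30-OHK cell line, read out with a cell viability assay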
Description: SANGER: Inhibition of human P30-OHK cell growth in a cell viability assay.

LB831-BLC = assay type: functional, cell-based;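 note: growth inhibition of LB831-BLC cells, read out with a cell viability assay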
Description: SANGER: Inhibition of human LB831-BLC cell growth in a cell viability assay.

NB69 = assay type: functional, cell-based;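 note: growth inhibition of NB69 cells, determined by a cell viability assay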
Description: SANGER: Inhibition of human NB69 cell growth in a cell viability assay.

HAL-01 = assay type: functional, cell-based;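 note: growth inhibition of human HAL-01 cells, read out with a cell viability assay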
Description: SANGER: Inhibition of human HAL-01 cell growth in a cell viability assay.

SW684 = assay type: functional, cell-based;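 note: growth inhibition of human SW684 cells, measured by a cell viability assay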
Description: SANGER: Inhibition of human SW684 cell growth in a cell viability assay.

COLO-829 = assay type: functional, cell-based
Description: SANGER: Inhibition of human COLO-829 cell growth in a cell viability assay.

MMAC-SF = assay type: functional, cell-based;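 note: growth inhibition of human MMAC-SF cells, read out with a cell viability assay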
Description: SANGER: Inhibition of human MMAC-SF cell growth in a cell viability assay.

GCIY = assay type: functional, cell-based;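 note: growth inhibition of the human GCIY cell line, read out by a cell viability assay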
Description: SANGER: Inhibition of human GCIY cell growth in a cell viability assay.

TE-1 = assay type: functional, cell-based;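 note: growth inhibition of the human TE-1 cell line, read out with a cell viability assay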
Description: SANGER: Inhibition of human TE-1 cell growth in a cell viability assay.

NCI-H209 = assay type: functional, cell-based;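 note: growth inhibition of human NCI-H209 cells, measured by a cell viability assay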
Description: SANGER: Inhibition of human NCI-H209 cell growth in a cell viability assay.

MHH-NB-11 = assay type: functional, cell-based;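 note: growth inhibition of human MHH-NB-11 cells, read out by a cell viability assay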
Description: SANGER: Inhibition of human MHH-NB-11 cell growth in a cell viability assay.

U-87 MG = assay type: functional, cell-based, U-87MG ATCC;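 note: growth inhibition of the cells measured with a viability assay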
Description: SANGER: Inhibition of human U-87-MG cell growth in a cell viability assay.

NCI-H526 = assay type: functional, cell-based;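 note: growth inhibition of the human NCI-H526 cell line, measured by a cell viability assay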
Description: SANGER: Inhibition of human NCI-H526 cell growth in a cell viability assay.

KLE = assay type: functional, cell-based
Description: SANGER: Inhibition of human KLE cell growth in a cell viability assay.

BE-13 = assay type: functional, cell-based
Description: SANGER: Inhibition of human BE-13 cell growth in a cell viability assay.

LB771-HNC = assay type: functional, cell-based
Description: SANGER: Inhibition of human LB771-HNC cell growth in a cell viability assay.

RCC10RGB = assay type: functional, cell-based
Description: SANGER: Inhibition of human RCC10RGB cell growth in a cell viability assay.

NCI-H23 = assay type: functional, cell-based
Description: SANGER: Inhibition of human NCI-H23 cell growth in a cell viability assay.

CC(O)(CS(=O)(=O)c1ccc(F)cc1)C(=O)Nc1ccc(C#N)c(C(F)(F)F)c1 (configuration not stated) [BICALUTAMIDE]
IC50 (COLO-684): > 1020 nM | IC50 (NOS-1): > 1020 nM | IC50 (NCI-H1155): > 1020 nM | IC50 (NH-12): > 1020 nM | IC50 (NCI-H510A): > 1020 nM | IC50 (TE-5): > 1020 nM | IC50 (EW-18): > 1020 nM | IC50 (KG-1): > 1020 nM | IC50 (SCH): > 1020 nM | IC50 (NB6): > 1020 nM | IC50 (LS-411N): > 1020 nM | IC50 (Ramos-2G6-4C10): > 1020 nM | IC50 (HCE-4): > 1020 nM | IC50 (8-MG-BA): > 1020 nM | IC50 (D-263MG): > 1020 nM | IC50 (RPMI-8226): > 1020 nM | IC50 (NCI-H2126): > 1020 nM | IC50 (MZ2-MEL): > 1020 nM | IC50 (KP-N-YS): > 1020 nM | IC50 (BB65-RCC): > 1020 nM | IC50 (SH-4): > 1020 nM | IC50 (IST-MEL1): > 1020 nM | IC50 (LXF-289 cell line): > 1020 nM | IC50 (HT): > 1020 nM | IC50 (ES7): > 1020 nM | IC50 (EKVX): > 1020 nM | IC50 (MOLT-16): > 1020 nM | IC50 (NKM-1): > 1020 nM | IC50 (DJM-1): > 1020 nM | IC50 (SCC-15): > 1020 nM | IC50 (SW872): > 1020 nM | IC50 (IST-SL1): > 1020 nM | IC50 697: > 1020 nM | IC50 (KS-1): > 1020 nM | IC50 (KM-H2): > 1020 nM | IC50 (PSN1): > 1020 nM | IC50 (KU812 cell line): > 1020 nM | IC50 (BV-173): > 1020 nM | IC50 (SK-NEP-1): > 1020 nM | IC50 (SK-MEL-2): > 1020 nM | IC50 (K562): > 1020 nM | IC50 (NCI-H1838): > 1020 nM | IC50 (NCI-H1092): > 1020 nM | IC50 (GOTO): > 1020 nM | IC50 (SW982): > 1020 nM | IC50 (ACN): > 1020 nM | IC50 (JVM-3): > 1020 nM | IC50 (MS-1): > 1020 nM | IC50 (P30-OHK): > 1020 nM | IC50 (LB831-BLC): > 1020 nM | IC50 (NB69): > 1020 nM | IC50 (HAL-01): > 1020 nM | IC50 (SW684): > 1020 nM | IC50 (COLO-829): > 1020 nM | IC50 (MMAC-SF): > 1020 nM | IC50 (GCIY): > 1020 nM | IC50 (TE-1): > 1020 nM | IC50 (NCI-H209): > 1020 nM | IC50 (MHH-NB-11): > 1020 nM | IC50 (U-87 MG): > 1020 nM | IC50 (NCI-H526): > 1020 nM | IC50 (KLE): > 1020 nM | IC50 (BE-13): > 1020 nM | IC50 (LB771-HNC): > 1020 nM | IC50 (RCC10RGB): > 1020 nM | IC50 (NCI-H23): > 1020 nM

COc1cc(Nc2c(C#N)cnc3cc(OCCCN4CCN(C)CC4)c(OC)cc23)c(Cl)cc1Cl [BOSUTINIB]
IC50 (COLO-684): > 2000 nM | IC50 (NOS-1): > 2000 nM | IC50 (NCI-H1155): > 2000 nM | IC50 (NH-12): > 2000 nM | IC50 (NCI-H510A): > 2000 nM | IC50 (TE-5): > 2000 nM | IC50 (EW-18): > 2000 nM | IC50 (KG-1): 1410 nM | IC50 (SCH): > 2000 nM | IC50 (NB6): > 2000 nM | IC50 (LS-411N): > 2000 nM | IC50 (Ramos-2G6-4C10): > 2000 nM | IC50 (HCE-4): > 2000 nM | IC50 (8-MG-BA): > 2000 nM | IC50 (D-263MG): > 2000 nM | IC50 (RPMI-8226): > 2000 nM | IC50 (NCI-H2126): > 2000 nM | IC50 (MZ2-MEL): > 2000 nM | IC50 (KP-N-YS): > 2000 nM | IC50 (BB65-RCC): 1900 nM | IC50 (SH-4): > 2000 nM | IC50 (IST-MEL1): > 2000 nM | IC50 (LXF-289 cell line): > 2000 nM | IC50 (HT): > 2000 nM | IC50 (ES7): > 2000 nM | IC50 (EKVX): > 2000 nM | IC50 (MOLT-16): > 2000 nM | IC50 (NKM-1): 1720 nM | IC50 (DJM-1): > 2000 nM | IC50 (SCC-15): 1620 nM | IC50 (SW872): > 2000 nM | IC50 (IST-SL1): > 2000 nM | IC50 697: 456 nM | IC50 (KS-1): > 2000 nM | IC50 (KM-H2): > 2000 nM | IC50 (PSN1): > 2000 nM | IC50 (KU812 cell line): 341 nM | IC50 (BV-173): 508 nM | IC50 (SK-NEP-1): 972 nM | IC50 (SK-MEL-2): > 2000 nM | IC50 (K562): > 2000 nM | IC50 (NCI-H1838): > 2000 nM | IC50 (NCI-H1092): > 2000 nM | IC50 (GOTO): > 2000 nM | IC50 (SW982): > 2000 nM | IC50 (ACN): > 2000 nM | IC50 (JVM-3): 1050 nM | IC50 (MS-1): > 2000 nM | IC50 (P30-OHK): > 2000 nM | IC50 (LB831-BLC): > 2000 nM | IC50 (NB69): > 2000 nM | IC50 (HAL-01): 1090 nM | IC50 (SW684): > 2000 nM | IC50 (COLO-829): > 2000 nM | IC50 (MMAC-SF): > 2000 nM | IC50 (GCIY): > 2000 nM | IC50 (TE-1): > 2000 nM | IC50 (NCI-H209): 408 nM | IC50 (MHH-NB-11): 1310 nM | IC50 (U-87 MG): > 2000 nM | IC50 (NCI-H526): 1990 nM | IC50 (KLE): > 2000 nM | IC50 (BE-13): 486 nM | IC50 (LB771-HNC): 831 nM | IC50 (RCC10RGB): > 2000 nM | IC50 (NCI-H23): > 2000 nM
